Columns and labels:
Type in all cases: cell-based, human
CHOP = experiment: Western blot, CHOP expression in CRL-2813 cells; conditions: 5 μM, 8 hours, Western blot (FIG. 2B)
Protocol: (§1) FIGS. 2A-2B show HRI activators of the present application induce eIF2α phosphorylation and modify its downstream effectors. In FIG. 2A, CRL-2813 cells were treated with 5 μM of each compound for 2 hours, cell lysates were probed with phosphorylated (P-eIF2α) and total eIF2α (T-eIF2α) and β-actin specific antibodies. In FIG. 2B, CRL-2813 cells were treated with 5 μM HRI activators for 8 hours and lysates were immunoblotted with antibodies against CHOP, p27^KiPl, cyclin D1 and β-actin.
(§2) Cells cultured under recommended media conditions were plated and maintained in serum-containing media without antibiotics in 14-cm plates (Nunc) until reaching 70% confluence. Cells were then treated with compounds for 6 h, washed with cold PBS once, and lysed with M-PER Mammalian Protein Extraction Reagent (Pierce) for 30 min on ice. The cell lysates were centrifuged at 12,000 RPM for 15 min and the supernatants were transferred to fresh tubes and the concentrations were determined by BCA (Pierce). Equal amount of proteins were mixed with Laemmli Sample Buffer, heated at 100° C. for 5 min, separated by SDS-PAGE, and probed with anti-phosphoserine-51-eIF2α (Phos-eIF2α), anti-total eIF2α-specific antibodies (Total-eIF2α) (Biosource International, Hopkinton, MA), anti-CHOP, anti-cyclin D1 or anti-actin (Santa Cruz Biotechnology, CA) using procedures substantially similar to previous reports (see e.g., Aktas et al, Mol. Cell. Biol. 17 (1997) 3850-3857).
(§3) Endogenous eIF2α is the best-known substrate of HRI and the upstream regulator of the eIF2·GTP·Met-tRNAi ternary complex abundance, while CHOP expression is a downstream effector of eIF2α phosphorylation. For assessing eIF2α phosphorylation, blotted cell lysates were treated for two hours with vehicle or selected compounds using antibodies specific for the total-eIF2α and the phosphorylated-eIF2α (T-eIF2α and [PhoS^51]-eIF2α), respectively (see e.g., Aktas et al, J. Nutr. 134 (2004) 2487S-2491S) (see FIG. 2A).

cyclin D1 = experiment: Western blot, cyclin D1 expression in CRL-2813 cells; conditions: 5 μM, 8 hours, Western blot (FIG. 2B)
Protocol: as §1, §2, §3

[1] = tested on: MCF-7 cells transfected with siRNA targeting HRI; experiment: cell proliferation assay with siRNA knockdown of HRI (specificity for HRI); conditions: MCF-7 cells with or without siRNA targeting HRI; three days; SRB (FIG. 3)
Protocol: MCF-7 cells transfected with (solid bars) or without (hatched bars) siRNA targeting HRI were treated with the indicated concentrations of each compound for three days starting one day after transfection. Cell proliferation was measured by sulforhodamine B assay as previously reported (see e.g., Chen et al, Nat. Chem. Biol. 7 (2011) 610-616).
Stable cell lines utilized in this study were generated according to previous reports (see e.g., Bai et al, ChemBioChem, 14 (2013) 1255-1262). Briefly, cells were seeded at the density of 10^5 in 60-mm dish and transfected one day later using the Lipofectamine 2000 (Invitrogen). For selection of stable cell lines, transfected cells were transferred to 100-mm plates and selected with appropriate antibiotics (see e.g., Chen et al, Nat. Chem. Biol. 7 (2011) 610-616). siRNA knockdown was carried out in 96-well plates by reverse transfection as previously reported (see e.g., Chen et al, Nat. Chem. Biol. 7 (2011) 610-616).
To determine the specificity of the compounds described herein for HRI, knockdown expression of HRI in MCF-7 cells using a pool of siRNA targeting HRI was performed, along with a cell proliferation assay as a biologic response parameter (see e.g., Chen et al, Nat. Chem. Biol. 7 (2011) 610-616; and Chen et al, J. Med. Chem. 56 (2013) 9457-9470). This assay was selected because it compares specificity of the compounds for HRI compared to all other cellular targets that can impinge on cell proliferation. MCF-7 human breast cancer cells transfected with siRNA targeting HRI or vehicle were treated with various concentrations of representative 4-CF3-ΦOcHΦUs (1-VI, 4-VI, and 5-VI) and 4-CF3-ΦOcBΦU (1-IV).

Row | SMILES | expression of CHOP relative to DMSO (CHOP) | expression of cyclin D1 relative to DMSO (cyclin D1) | effect of knocking down HRI on the anti-proliferative activity [1]
1 | N#Cc1cc(NC(=O)N[C@H]2C[C@H](Oc3ccc(C(F)(F)F)cc3)C2)cc(C(F)(F)F)c1 [Compound 1-IV, 1-(3-Cyano-5-(trifluoromethyl)phenyl)-3-(trans-3-(4-(trifluoromethyl)phenoxy)cyclobutyl)urea] | increased the expression of CHOP | decreased the expression of cyclin D1 | dramatic reduction in the activity
2 | N#Cc1cc(NC(=O)N[C@H]2CC[C@H](Oc3ccc(C(F)(F)F)cc3)CC2)cc(C(F)(F)F)c1 [Compound 1-VI, 1-(3-cyano-5-trifluoromethyl) phenyl-3-(trans-4-(4-(trifluoromethyl)phenoxy)cyclohexyl)urea, reference compound] | increased the expression of CHOP | decreased the expression of cyclin D1 | dramatic reduction in the activity
3 | N#Cc1cc(F)cc(NC(=O)N[C@H]2CC[C@H](Oc3ccc(C(F)(F)F)cc3)CC2)c1 [Compound 4-VI, 1-(3-Cyano-5-fluorophenyl)-3-(trans-4-(4-(trifluoromethyl)phenoxy)cyclohexyl)urea] | increased the expression of CHOP | decreased the expression of cyclin D1 | dramatic reduction in the activity
4 | N#Cc1ccc(NC(=O)N[C@H]2CC[C@H](Oc3ccc(C(F)(F)F)cc3)CC2)cc1F [Compound 5-VI, 1-(4-Cyano-3-fluorophenyl)-3-(trans-4-(4-(trifluoromethyl)phenoxy)cyclohexyl)urea] | increased the expression of CHOP | decreased the expression of cyclin D1 | dramatic reduction in the activity

Reference: US20240076272A1, “Activators of Heme Regulated Inhibitor Kinase (HRI)” (The Brigham and Women`s Hospital, Inc., priority 2019, published 2024)
